Here are results for 14 compounds from patent US10300067B2, “Tetrahydropyridopyrimidine compound or salt thereof” (TAIHO PHARMACEUTICAL CO., LTD., priority 2014, dated 2019).

Holding throughout (format): cell-based
Assay [1] deals with Human prostate cancer cells LNCaP. Put plainly: Androgen-dependent inhibitory activity on proliferation of prostate cancer cells. The following applies: 50% proliferation inhibition concentration, DHT 10 nmol/L, 72 hours, read-out: GI50 value. On the procedure:
Human prostate cancer cells LNCaP (Non-Patent Literature 5) having […] androgen receptor gene were seeded in a clear bottom 96 well microplate (BD) at 4.0×10^3/well with phenol red free RPMI1640 containing 5% DCC-FBS (hereinbelow, the medium is referred to as an evaluation medium), and then cultured overnight. The culture was added with the evaluation medium containing DHT (final concentration of DHT: 10 nmol/L) or the evaluation medium containing the compound of Examples or the compound of Comparative Examples (final concentration of the compound of Examples or the compound of Comparative Examples: 10, 30, 100, 300, 1000, 3000, 10000, or 30000 nmol/L), followed by culture for 72 hours. Then, the number of viable cells was counted. The number of viable cells was measured by using Cell Counting Kit-8 (DOJINDO LABORATORIES).

Another assay concerns the target human androgen receptor (Homo sapiens (Human), UniProt P10275). As to the kind of experiment: Antagonist activity for AR (pMMTV-luc reporter transcription activity in transfected COS-7 cells, DHT 1 nmol/L). As to conditions: 50% transcription activity inhibition concentration; COS-7 cells with pMMTV-luc and pEX-hAR, DHT 1 nmol/L, 24 hours. Put shortly: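 COS-7 cells co-transfected with pMMTV-luc reporter and CMV-driven human AR expression vector, cultured overnight in phenol red-free RPMI1640 with 10% charcoal-treated FBS. Antagonism measured against 1 nmol/L DHT by luciferase transcription activity.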

The target of the next assay is androgen receptor (Homo sapiens (Human), UniProt P10275, T878A). Put plainly: Activity of reducing expression level of androgen receptor (Western blotting of LNCaP cell lysate). As to conditions: 48 hours. In outline: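 LNCaP prostate cancer cells (AR T878A) in phenol red-free RPMI1640 with 5% FBS treated with compound at final 10000 nmol/L for 48 h. Cell lysates analysed by Western blot with anti-AR antibody; band quantified by chemiluminescence.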

The test system of assay [2] is AR positive human prostate cancer cells VCaP. As to the kind of experiment: Agonist activity for AR (cell proliferation rate of VCaP cells). The following applies: 72 hours, 2 to 10000 nmol/L, more than 10% at any concentration = agonist activity for AR. Put shortly:
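VCaP cells seeded at 1.5×10^4/well in phenol-red-free RPMI1640 with 5% DCC-FBS, then exposed 72 h to compound at 2–10000 nmol/L (9 concentrations). Viable cells counted by CellTiter-Glo; proliferation rate (%) relative to medium-only control, agonist activity called when >10% at any concentration.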

Chain of human androgen receptor (P10275 whole entry): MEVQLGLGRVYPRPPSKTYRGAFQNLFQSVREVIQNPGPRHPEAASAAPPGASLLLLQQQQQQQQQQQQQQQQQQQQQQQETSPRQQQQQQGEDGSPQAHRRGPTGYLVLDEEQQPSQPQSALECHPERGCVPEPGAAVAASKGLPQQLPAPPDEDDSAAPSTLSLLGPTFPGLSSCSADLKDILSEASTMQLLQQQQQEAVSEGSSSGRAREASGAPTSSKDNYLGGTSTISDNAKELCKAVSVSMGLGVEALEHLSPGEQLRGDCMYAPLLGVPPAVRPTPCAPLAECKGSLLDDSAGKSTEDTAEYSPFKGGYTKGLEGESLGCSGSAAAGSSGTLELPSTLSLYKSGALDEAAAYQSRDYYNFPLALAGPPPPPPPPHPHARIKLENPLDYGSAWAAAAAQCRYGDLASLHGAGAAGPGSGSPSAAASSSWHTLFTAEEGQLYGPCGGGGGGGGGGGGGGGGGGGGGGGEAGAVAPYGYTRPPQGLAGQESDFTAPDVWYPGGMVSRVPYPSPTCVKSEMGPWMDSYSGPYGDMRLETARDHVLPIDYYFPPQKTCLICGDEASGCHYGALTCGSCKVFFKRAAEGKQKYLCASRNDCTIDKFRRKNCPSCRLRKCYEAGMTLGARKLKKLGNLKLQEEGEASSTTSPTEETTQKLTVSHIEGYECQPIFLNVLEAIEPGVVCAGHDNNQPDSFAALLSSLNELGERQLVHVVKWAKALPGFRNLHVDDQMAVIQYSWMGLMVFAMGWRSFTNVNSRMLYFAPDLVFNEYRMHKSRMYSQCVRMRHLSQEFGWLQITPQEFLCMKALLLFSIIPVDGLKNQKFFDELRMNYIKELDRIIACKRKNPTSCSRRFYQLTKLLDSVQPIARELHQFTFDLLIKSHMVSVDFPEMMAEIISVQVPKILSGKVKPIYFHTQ
Chain of androgen receptor (P10275 whole entry T878A): as the sequence (P10275 whole entry) above, with T878A counted along it

In general, GI50 refers to the concentration giving 50% growth inhibition. What is called IC50 is the point on the concentration scale where inhibition reaches its midpoint. Higher therefore signals lower potency. With `N#Cc1ccc(N2CCc3c(ncnc3Nc3ncns3)C2)cc1C(F)(F)F` [Example 1, 4-(4-((1,2,4-thiadiazol-5-yl)amino)-5,6-dihydropyrido[3,4-d]pyrimidin-7(8H)-yl)-2-(trifluoromethyl)benzonitrile], the GI50 in assay [1] came out at 3000 nM. Besides, the IC50 at human androgen receptor came to 80 nM. Further, on androgen receptor, the “10 μM AR expression reducing activity” value was “reduced (When the AR expression reducing activity is 50% or more, it is described as “reduced”)”. Moreover, the “Cell proliferation rate (%)” value in assay [2] is recorded as 8.7%.

Regarding `CC(C)Oc1ccc(Nc2ncnc3c2CCN(c2ccc(C#N)c(C(F)(F)F)c2)C3)cc1` [Example 2, 4-(4-((4-isopropoxyphenyl)amino)-5,6-dihydropyrido[3,4-d]pyrimidin-7(8H)-yl)-2-(trifluoromethyl)benzonitrile], the GI50 in assay [1] came to 1000 nM. Moreover, at human androgen receptor, the IC50 turned out to be 370 nM. In addition, at androgen receptor, the “10 μM AR expression reducing activity” value was “reduced (When the AR expression reducing activity is 50% or more, it is described as “reduced”)”. For the same compound, in assay [2], the “Cell proliferation rate (%)” value is 3.8%.

For the compound `CC(C)(O)c1ccc(Nc2ncnc3c2CCN(c2ccc(C#N)c(C(F)(F)F)c2)C3)nc1F` [Example 5, 4-(4-((6-fluoro-5-(2-hydroxypropan-2-yl)pyridin-2-yl)amino)-5,6-dihydropyrido[3,4-d]pyrimidin-7 (8H)-yl)-2-(trifluoromethyl)benzonitrile], the GI50 in assay [1] is 600 nM. The compound further displayed an IC50 on human androgen receptor of 190 nM. For the same compound, the “10 μM AR expression reducing activity” value on androgen receptor was “reduced (When the AR expression reducing activity is 50% or more, it is described as “reduced”)”. Besides, in assay [2], the “Cell proliferation rate (%)” value is on record as −5.5%.

`CC(C)(O)c1ccc(Nc2ncnc3c2CCN(c2ccc(C#N)c(C(F)(F)F)c2)C3)nn1` [Example 10, 4-(4-((6-(2-hydroxypropan-2-yl)pyridazin-3-yl)amino)-5,6-dihydropyrido[3,4-d]pyrimidin-7 (8H)-yl)-2-(trifluoromethyl)benzonitrile]: the GI50 in assay [1] turned out to be 800 nM. For the same compound, on human androgen receptor, inhibition was half-maximal at 90 nM (IC50). In addition, the “10 μM AR expression reducing activity” value at androgen receptor was “reduced (When the AR expression reducing activity is 50% or more, it is described as “reduced”)”. For the same compound, in assay [2], the “Cell proliferation rate (%)” value was 2.8%.

For the compound `CC(C)Oc1ccc(Nc2ncnc3c2CCN(c2ccc(C#N)c(C(F)(F)F)c2)C3)cn1` [Example 13, 4-(4-((6-isopropoxypyridin-3-yl)amino)-5,6-dihydropyrido[3,4-d]pyrimidin-7(8H)-yl)-2-(trifluoromethyl)benzonitrile], the GI50 in assay [1] turned out to be 600 nM. Also, the IC50 on human androgen receptor was found to be 110 nM. Besides, at androgen receptor, the “10 μM AR expression reducing activity” value was “reduced (When the AR expression reducing activity is 50% or more, it is described as “reduced”)”. Besides, in assay [2], the “Cell proliferation rate (%)” value amounted to 2.8%.

For `CC(C)(COc1ccc(Nc2ncnc3c2CCN(c2ccc(C#N)c(C(F)(F)F)c2)C3)cn1)n1cnnn1` [Example 16, 4-(4-((6-(2-methyl-2-(1H-tetrazol-1-yl)propoxy)pyridin-3-yl)amino)-5,6-dihydropyrido[3,4-d]pyrimidin-7(8H)-yl)-2-(trifluoromethyl)benzonitrile], the GI50 in assay [1] amounted to 700 nM. At human androgen receptor, 210 nM corresponded to half-maximal inhibition (IC50). The “10 μM AR expression reducing activity” value at androgen receptor was “reduced (When the AR expression reducing activity is 50% or more, it is described as “reduced”)”. In addition, in assay [2], the “Cell proliferation rate (%)” value was −1.5%.

Turning to `CC(C)(COc1ccc(Nc2ncnc3c2CCN(c2ccc(C#N)c(C(F)(F)F)c2)C3)nc1)n1cnnn1` [Example 17, 4-(4-((5-(2-methyl-2-(1H-tetrazol-1-yl)propoxy)pyridin-2-yl)amino)-5,6-dihydropyrido[3,4-d]pyrimidin-7(8H)-yl)-2-(trifluoromethyl)benzonitrile], in assay [1], the GI50 came out at 700 nM. At human androgen receptor, this compound registered an IC50 of 170 nM. The “10 μM AR expression reducing activity” value at androgen receptor is listed as “reduced (When the AR expression reducing activity is 50% or more, it is described as “reduced”)”. Moreover, the “Cell proliferation rate (%)” value in assay [2] was determined as 0.6%.

With `CS(=O)(=O)N1CCN(CCCOc2ccc(Nc3ncnc4c3CCN(c3ccc(C#N)c(C(F)(F)F)c3)C4)cc2)CC1` [Example 18, 4-(4-((4-(3-(4-(methylsulfonyl)piperazin-1-yl)propoxy)phenyl)amino)-5,6-dihydropyrido[3,4-d]pyrimidin-7(8H)-yl)-2-(trifluoromethyl)benzonitrile], the GI50 in assay [1] stood at 1900 nM. On human androgen receptor, it took 360 nM to reach half-maximal inhibition (IC50). Moreover, the “10 μM AR expression reducing activity” value at androgen receptor is on record as “reduced (When the AR expression reducing activity is 50% or more, it is described as “reduced”)”. Moreover, the “Cell proliferation rate (%)” value in assay [2] was −4.6%.

As to `N#Cc1ccc(N2CCc3c(ncnc3Nc3ncc(S(=O)(=O)N4CCCOCC4)s3)C2)cc1C(F)(F)F` [Example 20, 4-(4-((5-((1,4-oxazepan-4-yl)sulfonyl)thiazol-2-yl)amino)-5,6-dihydropyrido[3,4-d]pyrimidin-7 (8H)-yl)-2-(trifluoromethyl)benzonitrile], the GI50 in assay [1] amounted to 2500 nM. The same compound came in with an IC50 against human androgen receptor of 100 nM. Also, the “10 μM AR expression reducing activity” value on androgen receptor is listed as “reduced (When the AR expression reducing activity is 50% or more, it is described as “reduced”)”. Also, in assay [2], the “Cell proliferation rate (%)” value was 0.0%.

Regarding `CC(C)(O)CNC(=O)c1ccc(Nc2ncnc3c2CCN(c2ccc(C#N)c(C(F)(F)F)c2)C3)nn1` [Example 32, 6-((7-(4-cyano-3-(trifluoromethyl)phenyl)-5,6,7,8-tetrahydropyrido[3,4-d]pyrimidin-4-yl)amino)-N-(2-hydroxy-2-methylpropyl)pyridazine-3-carboxamide], the GI50 in assay [1] is 3100 nM. The same compound had an IC50 at human androgen receptor of 60 nM. Moreover, the “10 μM AR expression reducing activity” value on androgen receptor is given as “reduced (When the AR expression reducing activity is 50% or more, it is described as “reduced”)”. Further, the “Cell proliferation rate (%)” value in assay [2] is −2.2%.

Take `CC(C)(O)CNC(=O)c1cnc(Nc2ncnc3c2CCN(c2ccc(C#N)c(C(F)(F)F)c2)C3)nc1` [Example 34, 2-((7-(4-cyano-3-(trifluoromethyl)phenyl)-5,6,7,8-tetrahydropyrido[3,4-d]pyrimidin-4-yl)amino)-N-(2-hydroxy-2-methylpropyl)pyrimidine-5-carboxamide]: the GI50 in assay [1] was 3800 nM. This compound gave an IC50 on human androgen receptor of 700 nM. For the same compound, at androgen receptor, the “10 μM AR expression reducing activity” value is “reduced (When the AR expression reducing activity is 50% or more, it is described as “reduced”)”. Further, the “Cell proliferation rate (%)” value in assay [2] is 6.4%.

Consider `N#Cc1ccc(N2CCc3c(ncnc3Nc3ccc(C(=O)NCc4nc(C(F)(F)F)cs4)cn3)C2)cc1C(F)(F)F` [Example 36, 6-((7-(4-cyano-3-(trifluoromethyl)phenyl)-5,6,7,8-tetrahydropyrido[3,4-d]pyrimidin-4-yl)amino)-N-((4-(trifluoromethyl)thiazol-2-yl)methyl)nicotinamide], for which the GI50 in assay [1] is 300 nM. Moreover, the IC50 against human androgen receptor is 170 nM. Moreover, the “10 μM AR expression reducing activity” value at androgen receptor is “reduced (When the AR expression reducing activity is 50% or more, it is described as “reduced”)”. Further, in assay [2], the “Cell proliferation rate (%)” value is recorded as −1.9%.

Regarding `C[C@@H](NC(=O)c1ccc(Nc2ncnc3c2CCN(c2ccc(C#N)c(C(F)(F)F)c2)C3)nc1)c1nnco1` [Example 38, (R)—N-(1-(1,3,4-oxadiazol-2-yl)ethyl)-6-((7-(4-cyano-3-(trifluoromethyl)phenyl)-5,6,7,8-tetrahydropyrido[3,4-d]pyrimidin-4-yl)amino)nicotinamide], the GI50 in assay [1] came out at 1100 nM. Further, inhibition on human androgen receptor was half-maximal at 560 nM (IC50). The “10 μM AR expression reducing activity” value on androgen receptor is on record as “reduced (When the AR expression reducing activity is 50% or more, it is described as “reduced”)”. For the same compound, in assay [2], the “Cell proliferation rate (%)” value is listed as −2.7%.

On to `C[C@@H](NC(=O)c1ccc(Nc2ncnc3c2CCN(c2ccc(C#N)c(C(F)(F)F)c2)C3)nc1)c1nnc(C(F)(F)F)o1` [Example 40, (R)-6-((7-(4-cyano-3-(trifluoromethyl)phenyl)-5,6,7,8-tetrahydropyrido[3,4-d]pyrimidin-4-yl)amino)-N-(1-(5-(trifluoromethyl)-1,3,4-oxadiazol-2-yl)ethyl)nicotinamide], for which the GI50 in assay [1] is 400 nM. The IC50 against human androgen receptor came to 260 nM. Moreover, the “10 μM AR expression reducing activity” value on androgen receptor was “reduced (When the AR expression reducing activity is 50% or more, it is described as “reduced”)”. The “Cell proliferation rate (%)” value in assay [2] came out at 0.0%.
